The values that follow come from ChEMBL document CHEMBL5465560, “Selectivity Literature for EUbOPEN Chemogenomic Library” (2024).

The target in assay [1] is CDK3/cyclin E (Homo sapiens) (UniProt P24864+O96020+Q00526). Kind of assay: Selectivity interaction (Upstate Kinase Profiler service (Millipore)) EUB0000056c CDK3. The conditions noted are these: at 1 µM. It is filed as protein-complex assay.
The target of assay [2] is Glycogen synthase kinase-3 alpha (Homo sapiens, UniProt P49840). Kind of assay: Selectivity interaction (ProQinase) EUB0000171b GSK3A.
The target of assay [3] is T1, Rhodopsin kinase GRK7 (Homo sapiens) (UniProt Q8WTQ7).
T1 sequence (whole entry): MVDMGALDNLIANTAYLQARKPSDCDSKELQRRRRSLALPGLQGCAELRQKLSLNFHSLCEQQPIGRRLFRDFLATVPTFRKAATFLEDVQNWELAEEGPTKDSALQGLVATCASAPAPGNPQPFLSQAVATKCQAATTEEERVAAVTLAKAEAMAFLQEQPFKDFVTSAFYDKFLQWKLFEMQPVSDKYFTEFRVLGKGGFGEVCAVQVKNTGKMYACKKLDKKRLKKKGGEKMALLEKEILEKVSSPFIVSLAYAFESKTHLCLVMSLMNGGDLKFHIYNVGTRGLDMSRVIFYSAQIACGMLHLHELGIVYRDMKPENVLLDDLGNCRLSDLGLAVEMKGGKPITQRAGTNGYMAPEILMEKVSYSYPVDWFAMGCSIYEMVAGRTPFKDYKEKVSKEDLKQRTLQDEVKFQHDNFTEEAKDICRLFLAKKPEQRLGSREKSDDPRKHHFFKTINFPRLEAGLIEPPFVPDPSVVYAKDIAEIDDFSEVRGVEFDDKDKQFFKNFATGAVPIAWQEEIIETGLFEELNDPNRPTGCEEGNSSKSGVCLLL
Put plainly: Selectivity interaction (Ambit KINOMEscan and KiNATiv profiling in Jurkat cells) EUB0000090b GRK7. The format is cell-based. The following applies: at 1 µM.

Assay [4] concerns the target T2, cAMP-dependent protein kinase catalytic subunit PRKX (Homo sapiens) (UniProt P51817).
T2 sequence (whole entry): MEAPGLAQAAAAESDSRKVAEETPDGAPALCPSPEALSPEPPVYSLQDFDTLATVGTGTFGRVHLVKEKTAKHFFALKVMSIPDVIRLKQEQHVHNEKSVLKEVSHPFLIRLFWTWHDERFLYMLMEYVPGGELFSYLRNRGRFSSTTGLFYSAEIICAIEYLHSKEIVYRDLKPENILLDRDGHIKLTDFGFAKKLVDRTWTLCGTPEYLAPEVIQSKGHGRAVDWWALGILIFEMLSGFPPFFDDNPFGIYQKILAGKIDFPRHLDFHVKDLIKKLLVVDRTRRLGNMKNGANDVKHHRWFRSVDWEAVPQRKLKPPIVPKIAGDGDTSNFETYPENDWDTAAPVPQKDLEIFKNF
Put plainly: Selectivity interaction (KinomeScan (DiscoverX)) EUB0001079a PRKX. The following applies: at 1 µM.

Assay [5] addresses T3, Membrane-associated tyrosine- and threonine-specific cdc2-inhibitory kinase (Homo sapiens) (UniProt Q99640).
T3 sequence (whole entry): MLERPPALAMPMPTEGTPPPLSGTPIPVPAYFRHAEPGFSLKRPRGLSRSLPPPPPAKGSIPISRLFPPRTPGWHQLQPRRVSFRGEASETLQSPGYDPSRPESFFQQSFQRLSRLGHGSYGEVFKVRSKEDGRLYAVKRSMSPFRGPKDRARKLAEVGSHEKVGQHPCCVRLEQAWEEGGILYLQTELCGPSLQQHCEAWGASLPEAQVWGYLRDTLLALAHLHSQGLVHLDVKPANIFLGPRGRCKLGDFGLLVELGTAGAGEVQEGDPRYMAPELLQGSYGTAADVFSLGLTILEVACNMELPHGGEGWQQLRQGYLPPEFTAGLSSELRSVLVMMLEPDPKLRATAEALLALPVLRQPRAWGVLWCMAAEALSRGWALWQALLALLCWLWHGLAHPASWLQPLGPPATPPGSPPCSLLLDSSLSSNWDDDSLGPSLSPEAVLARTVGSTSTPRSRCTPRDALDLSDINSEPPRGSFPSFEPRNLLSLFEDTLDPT
Put plainly: Selectivity interaction (LanthaScreen Eu Kinase Binding Assay) EUB0001632a PKMYT1. The following applies: at 10 µM. (In TR-FRET formats the signal depends on donor and acceptor labels being close together.)

The target of assay [6] is T4, Ephrin type-B receptor 4 (Homo sapiens) (UniProt P54760).
T4 sequence (whole entry): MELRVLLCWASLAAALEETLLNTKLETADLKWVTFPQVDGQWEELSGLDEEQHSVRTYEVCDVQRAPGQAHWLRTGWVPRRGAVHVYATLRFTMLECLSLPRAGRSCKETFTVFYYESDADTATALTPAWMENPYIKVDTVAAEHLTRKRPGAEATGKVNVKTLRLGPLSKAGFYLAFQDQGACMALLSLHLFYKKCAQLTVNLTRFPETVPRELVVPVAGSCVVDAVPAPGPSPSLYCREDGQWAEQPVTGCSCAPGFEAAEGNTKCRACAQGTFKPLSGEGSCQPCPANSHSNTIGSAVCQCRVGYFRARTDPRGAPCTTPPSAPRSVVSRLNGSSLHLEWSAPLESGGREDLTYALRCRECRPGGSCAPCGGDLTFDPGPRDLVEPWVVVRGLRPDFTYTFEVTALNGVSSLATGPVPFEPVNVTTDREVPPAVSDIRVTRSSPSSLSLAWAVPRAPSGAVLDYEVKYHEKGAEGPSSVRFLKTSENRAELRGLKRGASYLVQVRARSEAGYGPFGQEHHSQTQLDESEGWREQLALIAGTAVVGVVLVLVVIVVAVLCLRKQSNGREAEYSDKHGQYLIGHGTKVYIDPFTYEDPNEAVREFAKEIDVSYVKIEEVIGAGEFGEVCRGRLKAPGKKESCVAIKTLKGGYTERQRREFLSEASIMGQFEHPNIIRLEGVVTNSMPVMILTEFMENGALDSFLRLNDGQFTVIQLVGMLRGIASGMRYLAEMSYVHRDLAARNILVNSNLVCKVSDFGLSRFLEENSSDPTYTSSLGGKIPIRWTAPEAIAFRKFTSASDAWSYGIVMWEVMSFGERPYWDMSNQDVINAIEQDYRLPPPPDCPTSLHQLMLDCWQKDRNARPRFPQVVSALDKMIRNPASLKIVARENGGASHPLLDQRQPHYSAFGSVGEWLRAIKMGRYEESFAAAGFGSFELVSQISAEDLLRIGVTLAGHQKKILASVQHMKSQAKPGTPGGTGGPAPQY
Put plainly: Selectivity interaction (Kinase panel (Z-LYTE Assay)) EUB0001632a EPHB4. The following applies: at 10 µM.

Assay [7] addresses Mitogen-activated protein kinase kinase kinase 11 (Homo sapiens) (UniProt Q16584). Kind of assay: Selectivity interaction (ActivX KiNativ screen (kinase selectivity in THP-1 cell lysates)) EUB0000639a MAP3K11. It is filed as subcellular. The conditions noted are these: lysate, at 1 µM.
For assay [8], the target named is Serine/threonine-protein kinase 26 (Homo sapiens, UniProt Q9P289). Kind of assay: Selectivity interaction (KinomeScan (DiscoverX)) EUB0000595a STK26. The conditions noted are these: at 10 µM.
In assay [9] the target is Serine/threonine-protein kinase 32C (Homo sapiens) (UniProt Q86UX6). Put plainly: Selectivity interaction (KinomeScan (DiscoverX)) EUB0001619a STK32C. The following applies: at 1 µM.
Assay [10] deals with Leucine-rich repeat serine/threonine-protein kinase 2 (Homo sapiens, UniProt Q5S007). The conditions noted are these: PBMC, at 1 µM.
Leucine-rich repeat serine/threonine-protein kinase 2, sequence (Q5S007 whole entry): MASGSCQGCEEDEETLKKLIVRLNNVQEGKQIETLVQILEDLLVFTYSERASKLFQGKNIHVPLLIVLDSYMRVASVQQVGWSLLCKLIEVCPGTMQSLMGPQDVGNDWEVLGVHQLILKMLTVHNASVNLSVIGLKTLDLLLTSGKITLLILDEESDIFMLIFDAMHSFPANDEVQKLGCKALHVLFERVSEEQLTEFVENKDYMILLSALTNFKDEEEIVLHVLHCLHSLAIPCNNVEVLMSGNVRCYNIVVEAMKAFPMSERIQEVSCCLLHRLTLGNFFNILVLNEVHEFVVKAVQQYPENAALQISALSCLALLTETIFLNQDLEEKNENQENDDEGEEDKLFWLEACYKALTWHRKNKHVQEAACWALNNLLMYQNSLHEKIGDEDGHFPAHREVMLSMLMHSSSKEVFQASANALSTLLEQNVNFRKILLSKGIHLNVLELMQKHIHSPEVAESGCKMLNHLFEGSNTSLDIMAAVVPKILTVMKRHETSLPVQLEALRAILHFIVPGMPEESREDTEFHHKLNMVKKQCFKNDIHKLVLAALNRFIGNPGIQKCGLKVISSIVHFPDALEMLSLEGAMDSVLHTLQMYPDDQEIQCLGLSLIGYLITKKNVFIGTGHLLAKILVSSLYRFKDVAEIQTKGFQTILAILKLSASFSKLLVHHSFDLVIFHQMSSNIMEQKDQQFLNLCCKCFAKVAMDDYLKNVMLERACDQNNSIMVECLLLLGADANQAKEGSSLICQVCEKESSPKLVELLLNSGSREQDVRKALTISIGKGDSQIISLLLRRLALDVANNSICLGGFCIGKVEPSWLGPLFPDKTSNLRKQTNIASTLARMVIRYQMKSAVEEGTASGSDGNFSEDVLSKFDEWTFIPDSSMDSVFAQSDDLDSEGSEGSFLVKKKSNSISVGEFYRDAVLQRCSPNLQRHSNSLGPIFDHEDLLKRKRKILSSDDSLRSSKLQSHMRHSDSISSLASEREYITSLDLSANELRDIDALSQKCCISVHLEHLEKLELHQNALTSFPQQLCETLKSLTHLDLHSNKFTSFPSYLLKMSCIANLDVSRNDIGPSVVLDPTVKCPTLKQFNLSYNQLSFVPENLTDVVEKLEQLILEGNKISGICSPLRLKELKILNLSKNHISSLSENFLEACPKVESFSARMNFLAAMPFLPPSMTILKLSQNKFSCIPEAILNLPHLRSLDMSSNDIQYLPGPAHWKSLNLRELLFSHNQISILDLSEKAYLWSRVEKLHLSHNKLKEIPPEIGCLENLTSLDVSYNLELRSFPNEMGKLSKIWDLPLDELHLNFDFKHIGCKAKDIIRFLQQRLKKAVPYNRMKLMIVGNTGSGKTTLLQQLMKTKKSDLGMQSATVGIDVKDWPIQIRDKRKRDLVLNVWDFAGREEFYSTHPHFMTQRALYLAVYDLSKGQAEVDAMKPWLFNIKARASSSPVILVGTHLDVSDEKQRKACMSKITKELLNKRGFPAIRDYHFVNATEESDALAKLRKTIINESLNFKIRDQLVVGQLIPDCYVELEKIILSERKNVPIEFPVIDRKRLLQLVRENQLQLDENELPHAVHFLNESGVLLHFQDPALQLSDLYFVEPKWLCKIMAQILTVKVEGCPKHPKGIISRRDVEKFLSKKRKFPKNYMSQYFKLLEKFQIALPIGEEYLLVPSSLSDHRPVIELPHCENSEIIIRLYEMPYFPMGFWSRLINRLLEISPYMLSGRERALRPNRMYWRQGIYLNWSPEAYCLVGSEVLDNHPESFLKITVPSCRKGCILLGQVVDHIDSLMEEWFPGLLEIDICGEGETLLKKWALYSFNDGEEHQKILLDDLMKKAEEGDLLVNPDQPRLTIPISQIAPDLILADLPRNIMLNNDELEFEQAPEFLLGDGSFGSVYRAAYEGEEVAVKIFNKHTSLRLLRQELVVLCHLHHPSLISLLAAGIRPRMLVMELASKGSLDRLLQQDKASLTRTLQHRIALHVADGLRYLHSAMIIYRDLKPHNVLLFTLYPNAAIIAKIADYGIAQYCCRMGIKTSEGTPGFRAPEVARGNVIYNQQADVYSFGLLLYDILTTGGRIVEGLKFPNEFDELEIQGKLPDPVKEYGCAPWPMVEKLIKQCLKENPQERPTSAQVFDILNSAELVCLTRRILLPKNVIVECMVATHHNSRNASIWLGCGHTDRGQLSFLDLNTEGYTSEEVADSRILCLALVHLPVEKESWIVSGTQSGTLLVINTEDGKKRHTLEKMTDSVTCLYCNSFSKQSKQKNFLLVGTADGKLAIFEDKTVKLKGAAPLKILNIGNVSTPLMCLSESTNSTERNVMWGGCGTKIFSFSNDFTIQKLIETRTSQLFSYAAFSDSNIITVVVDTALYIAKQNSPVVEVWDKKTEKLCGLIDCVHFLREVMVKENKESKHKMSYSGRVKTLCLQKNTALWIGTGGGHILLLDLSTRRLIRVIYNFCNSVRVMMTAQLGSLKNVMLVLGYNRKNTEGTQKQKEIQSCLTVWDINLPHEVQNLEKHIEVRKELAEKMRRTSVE

Glycogen synthase kinase-3 alpha, sequence (P49840 2-483 limits assumed): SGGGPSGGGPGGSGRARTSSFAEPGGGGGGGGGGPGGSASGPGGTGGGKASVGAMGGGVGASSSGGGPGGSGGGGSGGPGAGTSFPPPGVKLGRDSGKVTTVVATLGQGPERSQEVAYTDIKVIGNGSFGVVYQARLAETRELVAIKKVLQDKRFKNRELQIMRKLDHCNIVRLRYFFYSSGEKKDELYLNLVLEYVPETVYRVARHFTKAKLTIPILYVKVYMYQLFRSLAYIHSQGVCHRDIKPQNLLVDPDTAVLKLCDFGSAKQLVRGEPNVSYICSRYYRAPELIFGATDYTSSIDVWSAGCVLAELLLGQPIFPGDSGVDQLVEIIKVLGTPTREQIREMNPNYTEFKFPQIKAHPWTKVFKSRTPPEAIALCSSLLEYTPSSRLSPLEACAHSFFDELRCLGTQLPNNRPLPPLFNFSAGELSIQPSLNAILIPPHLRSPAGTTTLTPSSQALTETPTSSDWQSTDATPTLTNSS
Mitogen-activated protein kinase kinase kinase 11 (Homo sapiens), sequence (Q16584 whole entry, looked up): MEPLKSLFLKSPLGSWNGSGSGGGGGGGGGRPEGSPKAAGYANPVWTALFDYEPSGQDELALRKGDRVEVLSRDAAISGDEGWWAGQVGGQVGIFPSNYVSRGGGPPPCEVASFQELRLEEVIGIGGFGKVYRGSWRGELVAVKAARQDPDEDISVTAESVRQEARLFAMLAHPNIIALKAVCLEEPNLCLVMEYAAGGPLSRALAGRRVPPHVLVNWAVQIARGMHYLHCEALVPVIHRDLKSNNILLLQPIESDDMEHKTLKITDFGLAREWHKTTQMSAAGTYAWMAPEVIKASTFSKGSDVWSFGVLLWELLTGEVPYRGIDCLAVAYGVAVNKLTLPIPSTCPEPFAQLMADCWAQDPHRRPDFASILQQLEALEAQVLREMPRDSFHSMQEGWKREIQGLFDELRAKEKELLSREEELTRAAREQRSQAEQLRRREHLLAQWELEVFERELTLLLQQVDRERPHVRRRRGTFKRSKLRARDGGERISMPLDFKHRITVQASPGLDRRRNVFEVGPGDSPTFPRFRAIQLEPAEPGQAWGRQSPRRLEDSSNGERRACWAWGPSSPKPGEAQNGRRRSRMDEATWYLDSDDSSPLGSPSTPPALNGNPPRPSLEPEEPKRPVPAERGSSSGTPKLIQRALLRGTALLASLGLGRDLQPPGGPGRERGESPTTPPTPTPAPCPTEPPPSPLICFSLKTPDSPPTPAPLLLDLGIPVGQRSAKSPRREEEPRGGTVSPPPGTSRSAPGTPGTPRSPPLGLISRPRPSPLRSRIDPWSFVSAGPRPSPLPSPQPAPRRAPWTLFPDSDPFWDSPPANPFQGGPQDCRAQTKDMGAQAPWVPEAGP
CDK3/cyclin E (Homo sapiens), sequence (O96020 whole entry, looked up): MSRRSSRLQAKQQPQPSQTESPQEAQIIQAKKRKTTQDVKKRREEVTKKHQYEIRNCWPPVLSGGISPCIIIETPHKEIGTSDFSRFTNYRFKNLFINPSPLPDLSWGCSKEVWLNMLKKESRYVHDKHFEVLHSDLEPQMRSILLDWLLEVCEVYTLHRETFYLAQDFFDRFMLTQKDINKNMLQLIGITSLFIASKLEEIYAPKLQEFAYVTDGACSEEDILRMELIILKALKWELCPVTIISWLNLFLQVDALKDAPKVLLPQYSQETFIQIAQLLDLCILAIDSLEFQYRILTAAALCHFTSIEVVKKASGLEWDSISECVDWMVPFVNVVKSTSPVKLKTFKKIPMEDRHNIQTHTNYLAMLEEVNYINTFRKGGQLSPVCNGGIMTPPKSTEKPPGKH
CDK3/cyclin E (Homo sapiens), sequence (P24864 whole entry, looked up): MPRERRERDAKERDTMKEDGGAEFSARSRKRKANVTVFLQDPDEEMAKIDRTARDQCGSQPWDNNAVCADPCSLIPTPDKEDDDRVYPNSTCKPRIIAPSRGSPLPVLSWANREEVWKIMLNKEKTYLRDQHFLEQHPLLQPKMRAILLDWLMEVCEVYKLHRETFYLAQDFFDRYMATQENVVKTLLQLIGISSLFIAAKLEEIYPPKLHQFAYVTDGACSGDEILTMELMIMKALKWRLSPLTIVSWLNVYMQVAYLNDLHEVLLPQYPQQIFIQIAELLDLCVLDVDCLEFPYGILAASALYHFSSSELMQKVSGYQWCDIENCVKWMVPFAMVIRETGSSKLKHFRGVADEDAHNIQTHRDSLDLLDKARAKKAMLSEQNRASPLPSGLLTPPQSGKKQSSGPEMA
CDK3/cyclin E (Homo sapiens), sequence (Q00526 whole entry, looked up): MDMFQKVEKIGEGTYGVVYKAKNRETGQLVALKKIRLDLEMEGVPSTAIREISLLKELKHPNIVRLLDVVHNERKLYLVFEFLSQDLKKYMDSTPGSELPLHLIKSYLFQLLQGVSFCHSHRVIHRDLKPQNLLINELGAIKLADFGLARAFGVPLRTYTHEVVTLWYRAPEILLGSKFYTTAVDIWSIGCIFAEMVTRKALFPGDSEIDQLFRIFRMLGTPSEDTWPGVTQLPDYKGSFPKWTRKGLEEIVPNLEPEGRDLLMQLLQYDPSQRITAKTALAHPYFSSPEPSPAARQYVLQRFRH

With `Cc1ccc(-c2ccc3c(ccc4sc5c(c43)NC[C@@H](C)NC5=O)n2)cn1`, the % of inhibition in assay [1] amounted to 5%.

Turning to `C=CC(=O)Nc1cccc(C(=O)Nc2ccc(Nc3cc(-c4[nH]c(SC)nc4C)ccn3)cc2)c1`, the % of control in assay [2] (at 1 µM) was 90%; in [2] (at 5 µM), 61%. In the case of `CN(C)C/C=C/C(=O)Nc1ccc(C(=O)N2CCCC(Nc3ncc(Cl)c(-c4c[nH]c5ccccc45)n3)C2)cc1` (stereo unspecified), in assay [3], the % of control was found to be 70%. Consider `Nc1cnc(N2CCc3cc(S(=O)(=O)Nc4c(F)cc(Cl)cc4F)cc(N4CCCC4=O)c32)nc1` [TP-020n], for which the % of control in [4] was 99%. As for `Cn1cc(-n2cnc3c(NCc4nc5cc(Cl)c(Cl)cc5[nH]4)nc(N4CCOCC4)nc32)cn1`, in [5], the % of inhibition was -3.65%. In [6], the % of control was -10.1%. As for `CC[C@@H]1[C@H](F)C(=O)N[C@@H]1COc1nccc2cc(C(N)=O)c(OC)cc12` [ZIMLOVISERTIB], in assay [7], the % of inhibition is -22.3%. Turning to `COCC(=O)NC/C=C/c1ccc2ncnc(Nc3ccc(Oc4ccc(C)nc4)c(C)c3)c2c1` [CP-724714], the % of control in [8] amounted to 90%. With `N#Cc1cccc(-c2c[nH]c3ncnc(N4CCOCC4)c23)c1`, the % of control in assay [9] was found to be 100%. Also, the % of inhibition in assay [10] turned out to be 94%.
